Where a name gives a salt, the structure may show the parent alone.
Assays:
[1] = system: Sweetpotato Whitefly Crawler (Bemisia tabaci) (BEMITA); experiment: Bioassays on Sweetpotato Whitefly Crawler, foliar spray on infested cotton plants; format: in vivo; conditions: 200 ppm test solution sprayed on cotton leaves until runoff, live nymphs counted after 8-9 days at 82° F., 50% RH, read-out: BEMITA rating (% Control of Mortality, Abbott-corrected)
Excerpt: Example B Bioassays on Sweetpotato Whitefly Crawler (Bemisia tabaci) (BEMITA.)
The sweetpotato whitefly, Bemisia tabaci (Gennadius), has been recorded in the United States since the late 1800s. In 1986 in Florida, Bemisia tabaci became an extreme economic pest. Whiteflies usually feed on the lower surface of their host plant leaves. From the egg hatches a minute crawler stage that moves about the leaf until it inserts its microscopic, threadlike mouthparts to feed by sucking sap from the phloem. Adults and nymphs excrete honeydew (largely plant sugars from feeding on phloem), a sticky, viscous liquid in which dark sooty molds grow. Heavy infestations of adults and their progeny can cause seedling death, or reduction in vigor and yield of older plants, due simply to sap removal. The honeydew can stick cotton lint together, making it more difficult to gin and therefore reducing its value. Sooty mold grows on honeydew-covered substrates, obscuring the leaf and reducing photosynthesis, and reducing fruit quality grade. It transmitted plant-pathogenic viruses that had never affected cultivated crops and induced plant physiological disorders, such as tomato irregular ripening and squash silverleaf disorder. Whiteflies are resistant to many formerly effective pesticides.
Cotton plants grown in 3-inch pots, with 1 small (3-5 cm) true leaf, were used at test substrate. The plants were placed in a room with whitefly adults. Adults were allowed to deposit eggs for 2-3 days. After a 2-3 day egg-laying period, plants were taken from the adult whitefly room. Adults were blown off leaves using a hand-held Devilbliss sprayer (23 psi). Plants with egg infestation (100-300 eggs per plant) were placed in a holding room for 5-6 days at 82° F. and 50% RH for egg hatch and crawler stage to develop. Four cotton plants were used for each treatment. Compounds (2 mg) were dissolved in 1 mL of acetone solvent, forming stock solutions of 2000 ppm. The stock solutions were diluted 10× with 0.025% Tween 20 in water to obtain a test solution at 200 ppm. A hand-held Devilbliss sprayer was used for spraying a solution to both sides of cotton leaf until runoff. Reference plants (solvent check) were sprayed with the diluent only. Treated plants were held in a holding room for 8-9 days at approximately 82° F. and 50% RH prior to grading. Evaluation was conducted by counting the number of live nymphs per plant under a microscope.

[2] = system: Green Peach Aphid ("GPA") (Myzus persicae) (MYZUPE); experiment: Bioassays on Green Peach Aphid (GPA), foliar spray on infested cabbage seedlings; format: in vivo; conditions: 72 h, 200 ppm test solution sprayed on cabbage leaves until runoff, live aphids counted after three days at about 25° C., read-out: MYZUPE rating (% Control of Mortality, Abbott-corrected)
Excerpt: Example A Bioassays on Green Peach Aphid (“GPA”) (Myzus persicae) (MYZUPE.)
GPA is the most significant aphid pest of peach trees, causing decreased growth, shriveling of leaves, and the death of various tissues. It is also hazardous because it acts as a vector for the transport of plant viruses, such as potato virus Y and potato leafroll virus to members of the nightshade/potato family Solanaceae, and various mosaic viruses to many other food crops. GPA attacks such plants as broccoli, burdock, cabbage, carrot, cauliflower, daikon, eggplant, green beans, lettuce, macadamia, papaya, peppers, sweet potatoes, tomatoes, watercress and zucchini among other plants. GPA also attacks many ornamental crops such as carnations, chrysanthemum, flowering white cabbage, poinsettia and roses. GPA has developed resistance to many pesticides.
Several molecules disclosed herein were tested against GPA using procedures described below.
Cabbage seedling grown in 3-in pots, with 2-3 small (3-5 cm) true leaves, were used as test substrate. The seedlings were infested with […] (wingless adult and nymph stages) one day prior to chemical application. Four posts with individual seedlings were used for each treatment. Test compounds (2 mg) were dissolved in 2 mL of acetone/methanol (1:1) solvent, forming stock solutions of 1000 ppm test compound. The stock solutions were diluted 5× with 0.025% Tween 20 in water to obtain the solution at 200 ppm test compound. A hand-held aspirator-type sprayer was used for spraying a solution to both sides of the cabbage leaves until runoff. Reference plants (solvent check) were sprayed with the diluent only containing 20% by volume acetone/methanol (1:1) solvent. Treated plants were held in a holding room for three days at approximately 25° C. and ambient relative humidity (RH) prior to grading. Evaluation was conducted by counting the number of live aphids per plant under a microscope. Percent Control was measured by using Abbott's correction formula (W. S. Abbott, “A Method of Computing the Effectiveness of an Insecticide” J. Econ. Entomol 18 (1925), pp. 265-267) as follows. Corrected % Control=100*(X−Y)/X • where • X=No. of live aphids on solvent check plants and • Y=No. of live aphids on treated plants
The results are indicated in the table entitled “Table 1: GPA (MYZUPE) and sweetpotato whitefly-crawler (BEMITA) Rating Table”.

| melting point [°C] | SMILES | mortality at 200 ppm [1] [%] | mortality at 200 ppm [2] [%] |
| --- | --- | --- | --- |
| 141 to 143 | O=[N+]([O-])c1cn(-c2cccnc2)nc1Cl [Compound 5c, 3-(3-Chloro-4-nitro-1H-pyrazol-1-yl)pyridine] |  |  |
|  | O=C(O)/C=N/Nc1cccnc1 [Compound 6a, (E)-2-((2-Pyridin-3-yl)hydrazono)acetic Acid Hydrochloride] | 0 to 80 | 0 to 80 |
|  | N#CC1CC(Cl)=NN1c1cccnc1 (stereo not drawn) [Compound 6b, 3-Chloro-1-(pyridine-3-yl)-4,5-dihydro-1H-pyrazole-5-carbonitrile] | < 0 | 0 to 80 |
|  | COC(=O)C1CC(Cl)=NN1c1cccnc1 (stereo not drawn) [Compound 6c, Methyl 3-chloro-1-(pyridin-3-yl)-4,5-dihydro-1H-pyrazole-5-carboxylate] | 80 to 100 | 0 to 80 |
|  | COC(=O)c1cc(Cl)nn1-c1cccnc1 [Compound 6d, Methyl 3-chloro-1-(pyridin-3-yl)-1H-pyrazole-5-carboxylate] | < 0 | 0 to 80 |
|  | O=C(O)c1cc(Cl)nn1-c1cccnc1 [Compound 6e, 3-Chloro-1-(pyridine-3-yl)-1H-pyrazole-5-carboxylic Acid Hydrochloride] | < 0 | 0 to 80 |
|  | CCOC(=O)C1CC(=O)NN1c1cccnc1 (stereo not drawn) [Compound 18.6, Ethyl 5-oxo-2-(pyridin-3-yl)pyrazolidine-3-carboxylate] | 0 to 80 | 0 to 80 |
|  | CCOC(=O)C1CC(Cl)=NN1c1cccnc1 (stereo not drawn) [Compound 19.6, Ethyl 3-chloro-1-(pyridin-3-yl)-4,5-dihydro-1H-pyrazole-5-carboxylate] | 0 to 80 | 0 to 80 |
